Test: xn = mol fraction of the nth substance listed
Settings: Liquid, Pycnometric method

Cc1ccccc1C [1,2-dimethylbenzene] + C1COCCO1
mass density [kg/m3]
Settings | 288.15 K | 293.15 K | 298.15 K | 303.15 K | 308.15 K | 313.15 K | 318.15 K
x2 = 0 | 884.09 | 879.83 | 875.57 | 871.31 | 867.05 | 862.79 | 858.53
x2 = 0.0672 | 891.2 | 886.85 | 882.5 | 878.15 | 873.8 | 869.45 | 865.1
x2 = 0.1391 | 899.18 | 894.73 | 890.29 | 885.85 | 881.41 | 876.97 | 872.53
x2 = 0.2103 | 907.48 | 902.95 | 898.42 | 893.89 | 889.36 | 884.83 | 880.3
x2 = 0.2853 | 916.69 | 912.06 | 907.43 | 902.8 | 898.17 | 893.55 | 888.93
x2 = 0.3543 | 925.67 | 920.95 | 916.23 | 911.51 | 906.79 | 902.08 | 897.37
x2 = 0.4293 | 936 | 931.18 | 926.36 | 921.55 | 916.74 | 911.93 | 907.12
x2 = 0.5092 | 947.69 | 942.77 | 937.85 | 932.93 | 928.02 | 923.11 | 918.2
x2 = 0.581 | 958.89 | 953.86 | 948.83 | 943.81 | 938.79 | 933.77 | 928.75
x2 = 0.6518 | 970.57 | 965.44 | 960.31 | 955.19 | 950.07 | 944.95 | 939.83
x2 = 0.7248 | 983.38 | 978.14 | 972.9 | 967.66 | 962.43 | 957.2 | 951.97
x2 = 0.7888 | 995.25 | 989.91 | 984.57 | 979.23 | 973.9 | 968.57 | 963.24
x2 = 0.8595 | 1009.11 | 1003.66 | 998.21 | 992.77 | 987.33 | 981.89 | 976.45
x2 = 0.9298 | 1023.75 | 1018.19 | 1012.63 | 1007.08 | 1001.53 | 995.99 | 990.45

Cc1cc(C)cc(C)c1 [1,3,5-trimethylbenzene] + C1COCCO1
mass density [kg/m3]
Settings | 288.15 K | 293.15 K | 298.15 K | 303.15 K | 308.15 K | 313.15 K | 318.15 K
x2 = 0 | 869.28 | 865.37 | 861.45 | 857.54 | 853.63 | 849.71 | 845.8
x2 = 0.0696 | 876.28 | 872.24 | 868.2 | 864.16 | 860.13 | 856.1 | 852.07
x2 = 0.1408 | 883.83 | 879.67 | 875.52 | 871.37 | 867.22 | 863.07 | 858.92
x2 = 0.2098 | 891.62 | 887.36 | 883.1 | 878.84 | 874.59 | 870.34 | 866.09
x2 = 0.28 | 900.04 | 895.68 | 891.32 | 886.96 | 882.6 | 878.25 | 873.9
x2 = 0.3558 | 909.87 | 905.4 | 900.93 | 896.46 | 892 | 887.54 | 883.08
x2 = 0.4276 | 919.97 | 915.4 | 910.83 | 906.26 | 901.7 | 897.14 | 892.58
x2 = 0.5066 | 932.03 | 927.35 | 922.67 | 917.99 | 913.32 | 908.65 | 903.98
x2 = 0.5801 | 944.34 | 939.54 | 934.74 | 929.94 | 925.14 | 920.34 | 915.54
x2 = 0.6548 | 957.96 | 953.01 | 948.06 | 943.12 | 938.18 | 933.25 | 928.32
x2 = 0.7227 | 971.44 | 966.36 | 961.28 | 956.21 | 951.14 | 946.07 | 941
x2 = 0.7936 | 986.75 | 981.51 | 976.27 | 971.04 | 965.81 | 960.58 | 955.35
x2 = 0.8663 | 1003.78 | 998.39 | 993 | 987.61 | 982.23 | 976.85 | 971.47
x2 = 0.9319 | 1020.49 | 1014.96 | 1009.43 | 1003.91 | 998.39 | 992.87 | 987.35

Cc1cccc(C)c1 [1,3-dimethylbenzene] + C1COCCO1
mass density [kg/m3]
Settings | 288.15 K | 293.15 K | 298.15 K | 303.15 K | 308.15 K | 313.15 K | 318.15 K
x2 = 0 | 868.59 | 864.31 | 860.02 | 855.74 | 851.45 | 847.17 | 842.88
x2 = 0.0938 | 879.61 | 875.2 | 870.79 | 866.38 | 861.97 | 857.56 | 853.16
x2 = 0.1532 | 886.95 | 882.46 | 877.97 | 873.48 | 868.99 | 864.5 | 860.01
x2 = 0.2046 | 893.54 | 888.98 | 884.42 | 879.87 | 875.32 | 870.77 | 866.22
x2 = 0.2698 | 902.26 | 897.62 | 892.98 | 888.35 | 883.72 | 879.09 | 874.47
x2 = 0.3374 | 911.76 | 907.05 | 902.34 | 897.63 | 892.92 | 888.21 | 883.5
x2 = 0.4002 | 921.05 | 916.26 | 911.47 | 906.68 | 901.9 | 897.12 | 892.34
x2 = 0.4714 | 932.18 | 927.3 | 922.42 | 917.55 | 912.68 | 907.81 | 902.94
x2 = 0.5487 | 945 | 940.02 | 935.04 | 930.06 | 925.08 | 920.1 | 915.12
x2 = 0.63 | 959.44 | 954.33 | 949.22 | 944.11 | 939.01 | 933.91 | 928.81
x2 = 0.7182 | 976.23 | 970.98 | 965.73 | 960.49 | 955.25 | 950.01 | 944.77
x2 = 0.8035 | 993.74 | 988.36 | 982.98 | 977.6 | 972.23 | 966.86 | 961.5
x2 = 0.8708 | 1008.47 | 1002.99 | 997.51 | 992.03 | 986.56 | 981.09 | 975.62
x2 = 0.9324 | 1022.71 | 1017.15 | 1011.59 | 1006.03 | 1000.48 | 994.93 | 989.38

Cc1ccc(C)cc1 [1,4-dimethylbenzene] + C1COCCO1
mass density [kg/m3]
Settings | 288.15 K | 293.15 K | 298.15 K | 303.15 K | 308.15 K | 313.15 K | 318.15 K
x2 = 0 | 865.52 | 861.17 | 856.82 | 852.47 | 848.12 | 843.77 | 839.42
x2 = 0.0716 | 874.09 | 869.64 | 865.2 | 860.76 | 856.32 | 851.88 | 847.44
x2 = 0.1445 | 883.22 | 878.69 | 874.16 | 869.64 | 865.12 | 860.6 | 856.08
x2 = 0.2132 | 892.23 | 887.63 | 883.03 | 878.43 | 873.83 | 869.23 | 864.63
x2 = 0.2871 | 902.41 | 897.73 | 893.05 | 888.37 | 883.69 | 879.02 | 874.35
x2 = 0.3582 | 912.76 | 908 | 903.24 | 898.49 | 893.74 | 888.99 | 884.24
x2 = 0.4358 | 924.73 | 919.88 | 915.03 | 910.19 | 905.35 | 900.51 | 895.67
x2 = 0.5042 | 935.9 | 930.97 | 926.04 | 921.12 | 916.2 | 911.28 | 906.36
x2 = 0.5846 | 949.87 | 944.84 | 939.81 | 934.78 | 929.76 | 924.74 | 919.72
x2 = 0.6543 | 962.76 | 957.63 | 952.5 | 947.38 | 942.26 | 937.14 | 932.02
x2 = 0.7249 | 976.61 | 971.38 | 966.15 | 960.92 | 955.69 | 950.46 | 945.23
x2 = 0.7923 | 990.62 | 985.27 | 979.92 | 974.58 | 969.25 | 963.92 | 958.59
x2 = 0.8623 | 1006.05 | 1000.6 | 995.15 | 989.7 | 984.25 | 978.8 | 973.35
x2 = 0.9311 | 1022.14 | 1016.58 | 1011.03 | 1005.48 | 999.93 | 994.38 | 988.83

— the NIST ThermoML archive (doi:10.1021/je800579j)
